According to US20150105252A1, “SUBSTITUTED PYRAZOLES AS HERBICIDES” (E I DU PONT DE NEMOURS AND COMPANY, priority 2013, published 2015):

Legend:
Experiment in all cases: Test C postemergence
oilseed rape = format: in vivo, Brassica napus
Procedure, shortened: (§1)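 In this greenhouse assay, seeded soil (loam plus sand) or emerged seedlings in peat-vermiculite medium were treated with formulated compound. Roughly two weeks later (13–15 days), each species was scored visually relative to controls, from 0 for no effect to 100 for complete control.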

blackgrass = format: in vivo, Alopecurus myosuroides
Text: (§2) Seeds of plant species selected from blackgrass (Alopecurus myosuroides), ryegrass, Italian (Italian ryegrass, Lolium multiflorum), wheat (winter wheat, Triticum aestivum), galium (catchweed bedstraw, Galium aparine), corn (Zea mays), crabgrass, large (large crabgrass, Digitaria sanguinalis), foxtail, giant (giant foxtail, Setaria faberii), johnsongrass (Sorghum halepense), lambsquarters (Chenopodium album), morningglory (Ipomoea coccinea), nutsedge, yellow (yellow nutsedge, Cyperus esculentus), pigweed (redroot pigweed, Amaranthus retroflexus), ragweed (common ragweed, Ambrosia elation), soybean (Glycine max), barnyardgrass (Echinochloa crus-galli), oilseed rape (Brassica napus), waterhemp (common waterhemp, Amaranthus rudis), oat, wild (wild oat, Avena fatua), kochia (Kochia scoparia), Surinam grass (Brachiaria decumbens), foxtail, green (green foxtail, Setaria viridis), goosegrass (Eleusine indica), bromegrass, downy (downy bromegrass, Bromus tectorum), nightshade (eastern black nightshade, Solanum ptycanthum), cocklebur (common cocklebur, Xanthium strumarium), cupgrass, woolly (woolly cupgrass, Eriochloa villosa), bermudagrass (Cynodon dactylon), sunflower, (common oilseed sunflower, Helianthus annuus), Russian thistle (Salsola kali), and velvetleaf (Abutilon theophrasti) were planted into a blend of loam soil and sand and treated preemergence with test chemicals formulated in a non-phytotoxic solvent mixture which included a surfactant.
(§3) At the same time, plants selected from these crop and weed species and also chickweed (common chickweed, Stellaria media), canarygrass (littleseed canarygrass, Phalaris minor), and deadnettle (henbit deadnettle, Lamium amplexicaule), were planted in pots containing Redi-Earth® planting medium (Scotts Company, 14111 Scottslawn Road, Marysville, Ohio 43041) comprising spaghnum peat moss, vermiculite, wetting agent and starter nutrients and treated with postemergence applications of test chemicals formulated in the same manner. Plants ranged in height from 2 to 18 cm (1- to 4-leaf stage) for postemergence treatments. Treated plants and controls were maintained in a greenhouse for 13 to 15 days, after which time all species were compared to controls and visually evaluated. Plant response ratings, summarized in Table C, are based on a scale of 0 to 100 where 0 is no effect and 100 is complete control. A dash (-) response means no test result.

chickweed = format: in vivo, Stellaria media
Procedure, shortened: as §1

wheat = format: in vivo, Triticum aestivum
Procedure, shortened: as §1

morningglory = format: in vivo, Ipomoea coccinea
Text: as §2, §3

foxtail, giant = format: in vivo, Setaria faberii
Procedure, shortened: as §1

waterhemp = format: in vivo, Amaranthus rudis
Text: as §2, §3

nutsedge, yellow = format: in vivo, Cyperus esculentus
Text: as §2, §3

johnsongrass = format: in vivo, Sorghum halepense
Procedure, shortened: as §1

ryegrass, Italian = format: in vivo, Lolium multiflorum
Procedure, shortened: as §1

kochia = format: in vivo, Kochia scoparia
Procedure, shortened: as §1

pigweed = format: in vivo, Amaranthus retroflexus
Text: as §2, §3

soybean = format: in vivo, Glycine max
Text: as §2, §3

ragweed = format: in vivo, Ambrosia elation
Text: as §2, §3

lambsquarters = format: in vivo, Chenopodium album
Procedure, shortened: as §1

oat, wild = format: in vivo, Avena fatua
Text: as §2, §3

barnyardgrass = format: in vivo, Echinochloa crus-galli
Procedure, shortened: as §1

[1] = Postemergence, 31 g ai/ha, visually evaluated after 13 to 15 days
[2] = postemergence, 62 g ai/ha, scale 0 to 100
[3] = postemergence, 250 g ai/ha, scale 0 to 100 (0 no effect, 100 complete control)
[4] = postemergence, 125 g ai/ha, scale 0 to 100, 0 no effect, 100 complete control

## CCCc1cc(C(=O)NCC)nn1Cc1ccnc(C(F)(F)F)c1 [Compound 95]
Oilseed rape; [1]
  Plant response rating (scale of 0 to 100 where 0 is no effect and 100 is complete control), Oilseed Rape: 30
Oilseed rape; [2]
  Oilseed Rape plant response rating: 30
Oilseed rape; [3]
  Plant response rating, Oilseed Rape: 50
Oilseed rape; [4]
  Plant response rating, Oilseed Rape: 50
blackgrass; [1]
  Plant response rating (scale of 0 to 100 where 0 is no effect and 100 is complete control), Blackgrass: 5
blackgrass; [2]
  Blackgrass plant response rating: 5
blackgrass; [3]
  Plant response rating, Blackgrass: 35
blackgrass; [4]
  Plant response rating, Blackgrass: 15
chickweed; [1]
  Plant response rating (scale of 0 to 100 where 0 is no effect and 100 is complete control), Chickweed: 85
chickweed; [2]
  Chickweed plant response rating: 100
chickweed; [3]
  Plant response rating, Chickweed: 100
chickweed; [4]
  Plant response rating, Chickweed: 100
wheat; [1]
  Plant response rating (scale of 0 to 100 where 0 is no effect and 100 is complete control), Wheat: 5
wheat; [2]
  Wheat plant response rating: 5
wheat; [3]
  Plant response rating, Wheat: 20
wheat; [4]
  Plant response rating, Wheat: 10
morningglory; [1]
  Plant response rating (scale of 0 to 100 where 0 is no effect and 100 is complete control), Morningglory: 50
morningglory; [2]
  Morningglory plant response rating: 50
morningglory; [3]
  Plant response rating, Morningglory: 70
morningglory; [4]
  Plant response rating, Morningglory: 50
foxtail, giant; [1]
  Plant response rating (scale of 0 to 100 where 0 is no effect and 100 is complete control), Foxtail, Giant: 5
foxtail, giant; [2]
  Foxtail, Giant plant response rating: 40
foxtail, giant; [3]
  Plant response rating, Foxtail, Giant: 60
foxtail, giant; [4]
  Plant response rating, Foxtail, Giant: 45
waterhemp; [1]
  Plant response rating (scale of 0 to 100 where 0 is no effect and 100 is complete control), Waterhemp: 30
waterhemp; [2]
  Waterhemp plant response rating: 30
waterhemp; [3]
  Plant response rating, Waterhemp: 30
waterhemp; [4]
  Plant response rating, Waterhemp: 30
nutsedge, yellow; [1]
  Plant response rating (scale of 0 to 100 where 0 is no effect and 100 is complete control), Nutsedge, Yellow: 0
nutsedge, yellow; [2]
  Nutsedge, Yellow plant response rating: 0
nutsedge, yellow; [3]
  Plant response rating, Nutsedge, Yellow: 10
nutsedge, yellow; [4]
  Plant response rating, Nutsedge, Yellow: 5
johnsongrass; [1]
  Plant response rating (scale of 0 to 100 where 0 is no effect and 100 is complete control), Johnsongrass: 0
johnsongrass; [2]
  Johnsongrass plant response rating: 0
johnsongrass; [3]
  Plant response rating, Johnsongrass: 30
johnsongrass; [4]
  Plant response rating, Johnsongrass: 5
ryegrass, Italian; [1]
  Plant response rating (scale of 0 to 100 where 0 is no effect and 100 is complete control), Ryegrass, Italian: 5
ryegrass, Italian; [2]
  Ryegrass, Italian plant response rating: 5
ryegrass, Italian; [3]
  Plant response rating, Ryegrass, Italian: 30
ryegrass, Italian; [4]
  Plant response rating, Ryegrass, Italian: 5
kochia; [1]
  Plant response rating (scale of 0 to 100 where 0 is no effect and 100 is complete control), Kochia: 50
kochia; [2]
  Kochia plant response rating: 70
kochia; [3]
  Plant response rating, Kochia: 85
kochia; [4]
  Plant response rating, Kochia: 85
pigweed; [1]
  Plant response rating (scale of 0 to 100 where 0 is no effect and 100 is complete control), Pigweed: 10
pigweed; [2]
  Pigweed plant response rating: 40
pigweed; [3]
  Plant response rating, Pigweed: 70
pigweed; [4]
  Plant response rating, Pigweed: 40
soybean; [1]
  Plant response rating (scale of 0 to 100 where 0 is no effect and 100 is complete control), Soybean: 45
soybean; [2]
  Soybean plant response rating: 50
soybean; [4]
  Plant response rating, Soybean: 80
ragweed; [1]
  Plant response rating (scale of 0 to 100 where 0 is no effect and 100 is complete control), Ragweed: 45
ragweed; [2]
  Ragweed plant response rating: 50
ragweed; [3]
  Plant response rating, Ragweed: 85
ragweed; [4]
  Plant response rating, Ragweed: 50
lambsquarters; [1]
  Plant response rating (scale of 0 to 100 where 0 is no effect and 100 is complete control), Lambsquarters: 40
lambsquarters; [2]
  Lambsquarters plant response rating: 80
lambsquarters; [3]
  Plant response rating, Lambsquarters: 98
lambsquarters; [4]
  Plant response rating, Lambsquarters: 90
oat, wild; [1]
  Plant response rating (scale of 0 to 100 where 0 is no effect and 100 is complete control), Oat, Wild: 5
oat, wild; [2]
  Oat, Wild plant response rating: 5
oat, wild; [3]
  Plant response rating, Oat, Wild: 50
oat, wild; [4]
  Plant response rating, Oat, Wild: 15
barnyardgrass; [1]
  Plant response rating (scale of 0 to 100 where 0 is no effect and 100 is complete control), Barnyardgrass: 0
barnyardgrass; [2]
  Barnyardgrass plant response rating: 0
barnyardgrass; [3]
  Plant response rating, Barnyardgrass: 30
barnyardgrass; [4]
  Plant response rating, Barnyardgrass: 0
